Measured values as given in article PMC4887073, “Investigating the Role of Loop C Hydrophilic Residue ‘T244’ in the Binding Site of ρ1 GABAC Receptors via Site Mutation and Partial Agonism” (PLoS ONE, 2016).
Like-named read-outs stand apart in the source and are kept apart here.

Experiments:
[1] = biological target: T1, ρ1 GABAC T244A mutant receptors (Homo sapiens, UniProt P24046, T265A); assay: Two-electrode voltage-clamp electrophysiology, Xenopus oocytes expressing ρ1 T244A mutant receptors; type: cell-based
T1 construct: expressed in transfected cells; host or cells: Xenopus laevis oocytes injected with cRNA (raised to 300 ng/μl)
Method: (§1) Pairs of the complementary mutagenic oligonucleotide primers were first designed to introduce single point mutations at human ρ1 GABAC subunit using UniProt. Primers were made by life technologies (Life Technologies^TM Australia Pty Ltd).
(§2) Site-directed mutagenesis was performed using QuikChange II site-directed mutagenesis kit as described by the manufacturer (Stratagene).
(§3) ρ1 GABAC WT and mutant plasmids DNA were linearized by incubation with Xba1. ρ1 WT and mutant cRNA were synthesized using the T7 Transcription mMESSAGE mMACHINE Kit (Ambion, Austin, TX, USA) following the procedure described by the manufacture. The quantity and quality of synthesized CRNA was determined by absorbance at 260–280 nm using Nanodrop Spectrophotometer (Thermo Scientific, Wilmington, DE, USA). The purity of synthesized cRNA was confirmed by agarose gel electrophoresis (0.9%) using the GelDoc 1000 (Bio-Rad Laboratories, Hercules, CA USA).
(§4) A microprocessor-controlled micropipette puller (PUL-100, World Precision Instruments, Inc. FL, USA) was used to make micropipettes then RNA pulled up into the micropipette by a positive-displacement using micro-injector (Nanoliter micro-injector, World Precision Instruments, Inc. FL, USA). Oocytes were sorted and healthy ones were injected with 35–50 ng of ρ cRNA unless otherwise mentioned.
(§5) The injected oocytes were incubated for between two and four days after injection with desired RNA. Two-electrode voltage clamp instrument; Geneclamp 500 amplifier (Axon Instrument, Sydney, NSW, Australia) and Chart version 5.5.6 was used to measure the various activities at the receptors expressed by these oocytes. The recording microelectrodes were prepared by pulling using PUL-100 micropipette puller (World precision Instruments, Inc. FL, USA) and filled with 3 M KCl.
(§6) Dose response curves were generated using GraphPad PRISM 5.02 (GraphPad Software San Diego, CA).

[2] = biological target: T2, human ρ1 GABAC WT receptors (Homo sapiens, UniProt P24046); assay: Two-electrode voltage-clamp electrophysiology, Xenopus oocytes expressing ρ1 GABAC WT receptors; type: cell-based; conditions: for Emax: read-out: efficacy relative to the GABA maximal response, ligand applied alone; for additive effect on GABA EC50 response (GABA EC50 response set to 100%): co-applied with GABA EC50
T2 construct: expressed in transfected cells; host or cells: Xenopus laevis oocytes injected with cRNA
Method: Human ρ1 cDNA subcloned into pcDNA1.1 (Invitrogen, San Diego, CA, USA) was kindly provided by Dr. George Uh1 (National Institute for Drug Abuse, Baltimore, MD, USA).
as §3, §4, §5, §6
(§7) The inhibitory concentration curves were generated using GraphPad PRISM 5.02 and IC50 values were calculated using Eq 2.

[3] = biological target: T3, ρ1 GABAC T244S mutant receptors (Homo sapiens, UniProt P24046, T265S); assay: Two-electrode voltage-clamp electrophysiology, Xenopus oocytes expressing ρ1 T244S mutant receptors; type: cell-based; conditions: for effect of T244S mutation on antagonist potency: ρ1 T244S compared to WT
T3 construct: expressed in transfected cells; host or cells: Xenopus laevis oocytes injected with cRNA
Method: as §1, §2, §3, §4, §5, §6, §7

[4] = biological target: T4, ρ1 GABAC T244C mutant receptors (Homo sapiens, UniProt P24046, T265C); assay: Two-electrode voltage-clamp electrophysiology, Xenopus oocytes expressing ρ1 T244C mutant receptors; type: cell-based
T4 construct: expressed in transfected cells; host or cells: Xenopus laevis oocytes injected with cRNA (raised to 300 ng/μl)
Method: as §1, §2, §3, §4, §5
Current responses were normalized to the maximum GABA-activated current (or other ligand which is stated as required) and expressed as a percentage, which was fitted by least squares to Hill equation (Eq 1). Dose response curves were generated using GraphPad PRISM 5.02 (GraphPad Software San Diego, CA).
GABA was first tested on all mutant receptors in order to determine the functionality of these receptors.

[5] = biological target: T3, ρ1 GABAC T244S mutant receptors; conditions: agonist effects eliminated; cited from earlier work
[6] = biological target: T2, human ρ1 GABAC WT receptors; parameters: method as in PMID 8386310; conditions: agonist applied alone; cited from earlier work
[7] = read-out: efficacy relative to the GABA maximal response, ρ1 T244S, ligand applied alone
[8] = high GABA concentrations, 300 ng/μl RNA

T1 sequence (P24046 22-479 T265A): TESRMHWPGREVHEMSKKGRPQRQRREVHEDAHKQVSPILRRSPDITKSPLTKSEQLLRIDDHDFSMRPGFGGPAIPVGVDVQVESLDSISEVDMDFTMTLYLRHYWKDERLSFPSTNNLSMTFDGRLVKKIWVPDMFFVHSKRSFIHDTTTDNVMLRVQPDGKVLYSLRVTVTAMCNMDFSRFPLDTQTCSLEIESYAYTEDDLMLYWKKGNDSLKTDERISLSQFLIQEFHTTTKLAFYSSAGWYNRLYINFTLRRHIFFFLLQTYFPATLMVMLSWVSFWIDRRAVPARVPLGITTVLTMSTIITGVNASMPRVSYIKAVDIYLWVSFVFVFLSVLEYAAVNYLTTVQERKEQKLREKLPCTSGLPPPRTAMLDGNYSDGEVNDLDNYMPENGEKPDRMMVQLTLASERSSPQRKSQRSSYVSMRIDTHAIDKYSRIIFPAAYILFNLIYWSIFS
T2 sequence (P24046 22-479): as the sequence (P24046 22-479 T265A) above, with A244T counted along it
T3 sequence (P24046 22-479 T265S): as the sequence (P24046 22-479 T265A) above, with A244S counted along it
T4 sequence (P24046 22-479 T265C): as the sequence (P24046 22-479 T265A) above, with A244C counted along it

## NCCCCC(=O)O [5-aminovaleric acid]
[1]
  efficacy compared with GABA: less efficacious than GABA
[2]
  IC50: 37 µM
[2]; ρ1 WT, applied alone
  agonist character: weak partial agonists
[3]
  IC50: 17 µM

## NC/C=C\C(=O)O [CACA]
[2]; agonist applied alone, ρ1 WT
  EC50: 95 µM
[2]; ρ1 WT
  Emax: 60%
[2]; ρ1 WT, co-applied with GABA EC50, at 100 μM ligand
  additive effect, % of GABA EC50 efficacy: 150%
[3]; [7]
  Emax: 2%
[3]; ρ1 T244S, 300 μM applied alone
  magnitude of response, % of GABA IMAX: less than 2%
[3]; ρ1 T244S, applied alone, minimal response at 300 μM
  agonist activity: almost inactive
[3]; ρ1 T244S, co-applied with GABA EC50, at 100 μM ligand
  enhancement of the GABA EC50 effect: ~20%

## NCCCC(=O)O [GABA, γ-aminobutyric acid]
[4]; 30 mM, five times the RNA normally injected
  response: very weak response
[4]; GABA 30mM, 50–100 ng/μl RNA
  sensitivity of receptors to GABA: non-functional or insensitive
[4]; [8]
  sensitivity of receptors to GABA: weakly responsive
[1]; 30 mM co-applied with 30 mM β-alanine
  effect on β-alanine response: moderately inhibits
[1]; GABA 30mM, 50–100 ng/μl RNA
  sensitivity of receptors to GABA: non-functional or insensitive
[1]; [8]
  sensitivity of receptors to GABA: weakly responsive

## CS(=O)(=O)SCCN [MTSEA, 2-aminoethylmethane thiosulfonate]
[4]; reversible responses
  potency and efficacy compared with GABA: greater potency and efficacy than GABA
[2]; ρ1 WT, applied alone
  activation: very weak efficacy and potency
[2]; ρ1 WT, co-applied with GABA EC50, concentrations below 100 μM
  effect on GABA EC50 response: weak additive effects
[2]; ρ1 WT, co-applied with GABA EC50, concentrations of 100 μM and above
  effect on GABA EC50 response: weakly antagonizes

## NC/C=C/C(=O)O [TACA, trans-aminocrotonic acid]
[1]
  efficacy compared with GABA: less efficacious than GABA
[2]; ρ1 WT
  Emax: 95%
[3]; agonist applied alone, ρ1 T244S
  EC50: 14 µM
[3]; [7]
  Emax: 110%
[3]; ρ1 T244S compared to ρ1 WT
  fold decrease in potency/activity: 25 fold

## Oc1noc2c1CCNC2 [THIP, 4,5,6,7-tetrahydroisoxazolo[5,4-c]pyridin-3-ol]
[3]
  effect of T244S mutation on antagonist potency: no effect

## CP(=O)(O)C1=CCNCC1 [TPMPA]
[1]
  effect when applied alone: no effect
[1]; 1 mM against β-alanine response (30 mM)
  effect on β-alanine response: weakly antagonizes
[2]; ρ1 WT
  IC50: 2.3 µM
[3]
  effect of T244S mutation on antagonist potency: no effect

## NCC(=O)O [glycine]
[1]
  efficacy compared with GABA: less efficacious than GABA
[2]; ρ1 WT, applied alone
  agonist character: weak partial agonists
[2]; ρ1 WT, at mM concentrations, applied alone
  direct activation of receptors: 25%
[2]; ρ1 WT
  additive effect on GABA EC50 response (GABA EC50 response set to 100%): 180%
[3]; ρ1 T244S, at mM concentrations, applied alone
  direct activation of receptors: 2%
[3]; ρ1 T244S, co-applied with GABA EC50
  additive effect on GABA EC50 response (GABA EC50 response set to 100%): 145%
[3]; ρ1 T244S, ligand applied alone
  maximum efficacy relative to the GABA maximal response at 30 mM: 8%

## O=C(O)Cc1c[nH]cn1 [imidazole-4-acetic acid]
[5]
  mode of action at mutant receptors: acted only as competitive antagonists

## O=C(O)C1=CCNCC1 [isoguvacine]
[6]
  EC50: 200 µM
[2]; ρ1 WT
  Emax: 45%
  additive effect on GABA EC50 response (GABA EC50 response set to 100%): 135%
[3]
  IC50: 25.3 µM

## NCc1cc(=O)[nH]o1 [muscimol]
[1]
  efficacy compared with GABA: less efficacious than GABA
[5]
  mode of action at mutant receptors: acted only as competitive antagonists

## NCCC(=O)O [β-alanine]
[1]; 300 ng/μl mutant RNA injected
  EC50: 1500 µM
[1]; 30 mM concentration
  efficacy compared with GABA: approximately two times more efficacious than GABA
[2]
  IC50: 120 µM
[2]; xenopus oocytes
  weak additive effect on GABA EC50 response: 125%
[2]; ρ1 WT, applied alone
  agonist character: weak partial agonists
[2]; ρ1 WT, concentrations greater than 100 μM
  inhibition of GABA EC50: 60%
[3]
  IC50: 1000 µM
[3]; read-out: maximum efficacy relative to the GABA maximal response at 30 mM, ρ1 T244S, ligand applied alone
  Emax: 5%
[3]; xenopus oocytes
  weak additive effect on GABA EC50 response: 115%
[3]; ρ1 T244S compared to ρ1 WT, against GABA EC50
  fold increase of IC50: 8 fold
[3]; ρ1 T244S, concentrations greater than 100 μM
  inhibition of GABA EC50: 60%
